US6727252B1, “Methods of modulating serine/threonine protein kinase function with 5-azaquinoxaline-based compounds” (Zentaris AG, priority 1997, dated 2004)
Like-named read-outs stand apart in the source and are kept apart here.

Columns and labels:
[1] = system: 3T3/H-Ras (NIH 3T3 clone 7 cells expressing genomic fragment of oncogenic H-Ras); assay: Growth of NIH 3T3 cells over expressing H-Ras (SRB); assay type: cell-based; conditions: Mus musculus, NIH3T3, 72 h; cell growth, 2% calf serum/DMEM, 3 days with compound
Description: The following assay measures growth rates for NIH-3T3 cells expressing RAS. The purpose of the assay is to determine the effects of compounds on the growth of NIH 3T3 cells over expressing H-Ras.
3T3/H-Ras (NIH 3T3 clone 7 cells expressing genomic fragment of oncogenic H-Ras).
2% calf serum/DMEM+2 mM glutamine, Pen/Strep
(§1) 1. Trypsinize cells. Transfer […] of cell suspension to 10 mL of isotone. Count cells with a Coulter Counter.
2. Dilute cells in growth medium to 60,000 cell/mL. Transfer 100 µL of cells to each well in a 96-well flat bottom plate to give 6000 cells/well.
3. Use half of plate (4 rows) for each comound and quadruplicate wells for each comound concentration, and a set of 4 wells for medium control.
(§2) 4. Gently shake plates to allow for uniform attachment of the cells.
(§3) 5. Incubate the plates at 37 C in a 10% CO2 incubator.
1. In a 96-well round bottom plate, add 120 µL of growth medium containing 2×final % DMSO found in highest screening concentration of compound to columns 1 to 11. For example, if the highest concentration is […], and this is made from a 100 mM stock, 1×DMSO is 0.1%, so 2×DMSO is 0.2%. This plate is used to titrate out the compound, 4 rows per compound.
2. In a sterile 15 mL tube, make a 2×solution of the highest screening concentration of compound in growth medium plus 2×DMSO. 1 mL per cell line is needed. The starting concentration of the compound is usually 100 µM but this concentration may vary depending upon the solubility of the compound.
3. Transfer 240 µL of the 2×starting compound solution to qudruplicate wells in column 12 of the 96-well round bottom plate. Do 1:2 serial dilutions across the plate from right to left by transferring […] from column 12 to column 11, column 11 to 10 and so on through column 2. Transfer 100 µL of compound dilutions, and 100 µL of medium in column 1, onto […] medium on cells in corresponding wells of 96-well flat bottom plate. Total volume per well should be […].
4. Return the plate to the incubattor and incubate for 3 days.
(§4) 1. Aspirate or pour off medium. Add […] cold 10% TCA to each well to fix cells. Incubate plate for at least 60 min. at 4 C.
(§5) 2. Discard TCA and rinse wells 5 times with tap water. Dry plates upside down on paper towels.
(§6) 3. Stain cells with 100 µL/well 0.4% SRB for 10 min.
4. Pour of SRB and rinse wells 5 times with 1% acetic acid. Dry plates completely upside down on paper towels.
(§7) 5. Solubilize dye with 100 µL/well 10 mM Tris base for 5-10 min. on shaker.
6. Read plates on Dynatech ELISA Plate REader at 570 nm with reference at 630 nm.

[2] = system: A549 human lung carcinoma cells; assay: Growth of A549 cells (SRB); assay type: cell-based; conditions: cell growth
Description: The following assay measures growth rates for A549 cells. The purpose of the assay is to determine the effects of compounds on the growth of A549 human lung carcinoma cells. A549 cells are readily accessible from commercial sources, such as ATCC (CCL185). […]
as §1
2. Dilute cells in growth medium to 20,000 cell/mL. Transfer 100 µL of cells to each well in a 96-well flat bottom plate to give 2000 cells/well.
3. Use half of plate (4 rows) for each compound and quadruplicate wells for each compound concentration, and a set of 4 wells for medium control.
as §2, §3
1. In a 96 well-round bottom plate, add 120 µL of growth medium containing 2×final %DMSO found in highest screening concentration of compound to columns 1 to 11. For example, if the highest screening concentration is 100 µM, and this is made from a 100 mM stock, 1×DMSO is 0.1%, so 2×DMSO is 0.2%. This plate is used to titrate out the compound, 4 rows per compound.
2. In a sterile 15 mL tube, make a 2×solution of the highest screening concentration of compound in growth medium plus. 2×DMSO. 1 mL per cell line is needed. The starting concentration of the compound is usually 100 µM but this concentration may vary depending upon the solubility of the compound.
3. Transfer 240 µL of the 2×starting compound solution to quadruplicate wells in column 12 of the 96-well round bottom plate. Do 1:2 serial dilutions across the plate from right to left by transferring […] from column 12 to column 11, column 11 to 10 and so on through column
2. Transfer 100 µL of compound dilutions, and 100 µL of medium in column 1, onto […] medium on cells in corresponding wells of 96-well flat bottom plate. Total volume per well should be 200 L.
4. Return the plate to the incubator and incubate for 3 days.
as §4, §5, §6
4. Pour off SRB and rinse wells 5 times with 1% acetic acid. Dry plates completely upside down on paper towels.
as §7
6. Read plates on Dynatech ELISA Plate Reader at 570 nm with reference at 630 nm.

[3] = 2% FBS, read-out: IC50 (M) A549 (2% FBS)
[4] = growth medium 10% fetal calf serum in Ham's F12-K, read-out: IC50 (M) A549

Oc1ccc(-c2cnc3ccc(Nc4ccccc4)nc3n2)cc1 [Compound A-1, 6-Phenylamino-3-(4-hydroxyphenyl)-5-azaquinoxaline]
IC50 [1]: 1.04 µM

Oc1ccc(-c2cnc3ccc(NCc4ccccc4)nc3n2)cc1 [Compound A-2, 6-Benzylamino-3-(4-hydroxyphenyl)-5-Azaquinoxaline]
melting point: 271 to 273 °C | IC50 [1]: 7.6 µM | IC50 [2, 3]: > 1e-05 M | IC50 [2, 4]: 2.51e-05 M

Fc1ccc(CNc2ccc3nc(-c4ccccc4)c(-c4ccccc4)nc3n2)cc1 [Compound A-6, 2,3-Diphenyl-6-(4-fluorobenzylamino)-5-azaquinoxaline]
IC50 [1]: 13.5 µM | IC50 [2, 3]: > 1e-05 M | IC50 [2, 4]: 2.38e-05 M

Oc1ccc(-c2cnc3ccc(Nc4ccccc4Cl)nc3n2)cc1 [Compound A-36, 6-(2-Chlorophenylamino)3-(4-hydroxyphenyl)-5-azaquinoxaline]
IC50 [1]: 0.18 µM

Clc1ccccc1Nc1ccc2ncc(-c3ccccc3)nc2n1 [Compound A-77, 6-(2-Chlorophenylamino)-3-phenyl-5-azaquinoxaline]
IC50 [1]: 0.7 µM
